Read-outs that look alike come from different tables or passages of the source.
Assays:
[1] = target: chymotrypsin (Bos taurus, UniProt P00766); conditions: Matteson et al.; cited from earlier work
[2] = tested on: experimentally-induced emphysema in hamsters; conditions: intraperitoneally; cited from earlier work
[3] = hamster, in vivo
Description: Plasma, 5 μL, containing various concentrations of inhibitor, or a dilution thereof, was incubated with 10 μL of a stock solution of 1.15×10^-5 M pancreatic elastase, in a final volume of 0.40 mL 0.10M Hepes buffer, pH 7.5, containing 0.5M NaCl at 25°. After 5 minutes incubation, 1.60 mL additional buffer and 20 μL of a 0.20M MeOSuc-AlaAlaPro-Val-pNA solution in dimethylsulfoxide was added and the increase in absorbance at 405 nm monitored. Levels of inhibitor were determined from a standard curve of % activity vs. inhibitor concentration.
FIG. 1 illustrates results of experiments in which hamsters, 50 days old, weighing 80-90 g, were administered MeOSu-AlaAlaPro-Boroval-pinacol in 1.0 mL saline at intraperitoneal dosage levels of 400, 200 and 100 mg/kg. At the indicated time intervals, blood samples (50-100 μL) were withdrawn by cardiac puncture from animals lightly anesthetized with ether, and elastase inhibitor levels determined. Normal plasma EIC is 14 μM.

[4] = target: T1, α-chymotrypsin (Bos taurus, UniProt P00766); conditions: competitive inhibitor; Lindquist et al.; cited from earlier work
T1 construct: purchased

[5] = plasma incubated at 4°
Description: The stability of inhibitory capacity provided by MeOSuc-AlaAlaPro-Boroval-OH in plasma was determined by incubating samples of plasma containing inhibitor at 4° for 24 hours, followed by assays for inhibitory capacity conducted as above.

[6] = target: T2, neutrophil elastase (Homo sapiens, UniProt P08246); test: Kinetic constants for interaction with human neutrophil elastase (Table 1); format: biochemical; parameters: Neutrophil elastase was prepared by the procedure described by Baugh. et al; from tissue
T2 sequence (P08246 30-267): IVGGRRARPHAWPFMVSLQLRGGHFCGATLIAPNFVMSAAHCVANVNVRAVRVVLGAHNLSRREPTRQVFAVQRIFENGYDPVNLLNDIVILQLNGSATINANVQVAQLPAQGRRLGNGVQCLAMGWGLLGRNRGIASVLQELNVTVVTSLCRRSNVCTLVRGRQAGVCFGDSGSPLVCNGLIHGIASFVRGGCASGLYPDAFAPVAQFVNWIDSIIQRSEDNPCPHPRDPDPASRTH
Description: A more extensive evaluation of the kinetic constants for interaction of human neutrophil elastase with MeOSuc-AlaAlaPro-Boroval-OH were determined by methods substantially similar to those disclosed by Schloss, et al., Biochemistry 19:2358 (1980), who describe the following equation describing reversible, tight binding inhibition: [drawing 13]
As determined herein, Ki (initial)=k2 /k1; Ki (final)=(k2 /k1)k4 /(k3 +k4); and […]; E=[Enzyme]; I=[inhibitor]; EI and EI*=[enzyme-inhibitor complexes].
Ki (initial) was determined from initial velocity studies, according to the method of Lineweaver and Burk. Substrate concentration was varied from 0.80-0.04 mM, and concentration of inhibitor (MeOSuc-AlaAlaPro-Boroval-OH) was 200 nM. Observed inhibition appeared to be competitive, since double reciprocal plots of initial velocity vs. substrate concentration intercepted the y-axis at the same point.
The data were fitted to the following equation: P=P0 +(vi -vf)/k+vf t+(vf -vi)e^-kt /k. P is the concentration of product at time t, vi is the initial velocity, vf is the final steady state velocity, k is the first order rate constant and P0 is the concentration of product at t=0. Values of Ki (initial) and Ki (final) were then determined from plots of velocity^-1 vs. concentration of inhibitor using the method described by Dixon, Biochem. J. 55:170 (1953).

[7] = target: T2, neutrophil elastase; test: Inhibition of neutrophil elastase, additional peptide inhibitors preincubated in phosphate buffer (Table 3); format: biochemical; parameters: Neutrophil elastase was prepared by the procedure described by Baugh. et al; from tissue; conditions: Conc. 1.0 × 10^-7 M
Description: Additional peptide inhibitors were evaluated by a procedure similar to that described above. Stock solutions of inhibitors (1.00 mM) were prepared in dimethylsulfoxide and compounds were diluted to 0.10 mM with […], pH 7.5, yielding the free boronic acid. After incubation for one hour at about 23°, inhibitors were added to assay solutions (2.00 mL) consisting of […] MeOSuc-Ala-AlaProVal-p-nitroanilide in 0.10M Hepes buffer, pH 7.5, containing 0.50M NaCl. Assays were initiated by addition of 0.50 μg neutrophil elastase. Control assays without inhibitor indicated an initial velocity of 0.0195 min^-1. The value "k" in Table 3, below, is an estimate of the first order rate constant for time-dependent inhibition, as described above for MeOSuc-AlaAlaPro-Boroval-OH (Table 1).

[8] = target: T2, neutrophil elastase; conditions: cited from earlier work
[9] = tested on: emphysema in mice; conditions: cited from earlier work
[10] = target: Porcine pancreatic elastase (Sus scrofa, UniProt P00772); test: Inhibition of pancreatic elastase; format: biochemical; conditions: inhibitor 5 × 10^4 nM
Description: Porcine pancreatic elastase (9.8 U/mg.) was obtained from commercial sources. […] Reactions were initiated by addition of 0.5 μg of elastase in 0.020 mL of 0.020M sodium acetate buffer, pH 6.0, and hydrolysis of substrate was monitored spectrophotometrically at 405 nm at 25° C. Assay results are set forth in Table 4, below, expressed as percentages of activity of control mixtures to which no inhibitor was added: […]

[11] = target: T3, Bovine α-chymotrypsin (Bos taurus, UniProt P00766); test: Inhibition of α-chymotrypsin; format: biochemical; conditions: inhibitor 100 nM; N.T (no detectable time dependence)
T3 construct: purchased
Description: Bovine α-chymotrypsin, obtained from commercial sources, was used to prepare stock solutions. […] Reactions were initiated by the addition of 0.040 μg of enzyme and increases in absorbance were monitored spectrophotometrically at 405 nm at 25°.

[12] = target: T2, neutrophil elastase; test: Inhibition of neutrophil elastase (Table 2); format: biochemical; parameters: Neutrophil elastase was prepared by the procedure described by Baugh. et al; from tissue; conditions: inhibitor 5,000 nM
Description: Neutrophil elastase was prepared by the procedure described by Baugh. et al., Biochemistry 15:836 […]. Enzyme assays were conducted substantially according to the procedure disclosed by Nakajima, et al., J. Biol. […] Inhibitors were evaluated by comparing enzymatic activity measured in the presence and absence of inhibitor.

[13] = tested on: hamsters; conditions: intratracheal administration; cited from earlier work

Porcine pancreatic elastase, sequence (P00772 27-266): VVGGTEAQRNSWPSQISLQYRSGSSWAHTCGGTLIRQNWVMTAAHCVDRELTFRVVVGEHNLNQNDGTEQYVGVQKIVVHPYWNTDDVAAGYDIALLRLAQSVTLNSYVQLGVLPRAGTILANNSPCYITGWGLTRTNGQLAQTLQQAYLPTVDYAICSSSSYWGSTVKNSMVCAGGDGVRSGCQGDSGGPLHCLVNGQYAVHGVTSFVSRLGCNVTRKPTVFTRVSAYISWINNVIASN

## CC(=O)N[C@@H](Cc1ccccc1)B(O)O [(R)-1-acetamido-2-phenylethaneboronic acid]
[1]
  Ki: 4 µM

## N-acetyl-L-alanyl-L-alanyl-L-prolyl-L-alanine chloromethyl ketone [Ac-Ala-Ala-Pro-AlaCH2 Cl]
[2]
  block of experimentally-induced emphysema: effectively block experimentally-induced emphysema

## COC(=O)CCC(=O)N[C@@H](C)C(=O)N[C@@H](C)C(=O)N1CCC[C@H]1C(=O)NC(B1OC(C)(C)C(C)(C)O1)C(C)C (stereo partly drawn) [MeOSuc--Ala--Ala--Pro--Boroval--pinacol, MeOSuc-AlaAlaPro-Boroval-pinacol]
[3]
  elevation of plasma EIC: at least 10 fold

## O=C(NCB(O)O)c1ccccc1 [N-benzoylaminomethaneboronic acid]
[4]
  Ki: 1 to 4 µM

## COC(=O)CCC(=O)N[C@@H](C)C(=O)N[C@@H](C)C(=O)N1CCC[C@H]1C(=O)NC(B(O)O)C(C)C (stereo partly drawn) [MeOSuc--Ala--Ala--Pro--Boroval--OH, MeOSuc-AlaAlaPro-Boroval-OH]
[5]; t = 0 hr.
  % Activity, Plasma + Inhibitor: 18.5%
[5]; t = 48 hr.
  % Activity, Plasma + Inhibitor: 17%
[6]; initial velocity studies, Lineweaver and Burk, inhibitor 200 nM, read-out: Ki Initial
  Ki: 0.15 µM
[6]; progressive inhibition, Dixon plot, t = 0, inhibitor 30-300 nM, read-out: Ki Initial
  Ki: 0.091 µM
[6]; progressive inhibition, Dixon plot, t = infinity, equilibrium, read-out: Ki Final
  Ki: 0.0062 µM
[7]
  % Initial Activity: 61%
  k, first order rate constant for time-dependent inhibition: 0.27 min⁻¹

## N-methoxysuccinyl-L-alanyl-L-alanyl-L-prolyl-L-valine chloromethyl ketone [MeOSuc-Ala-Ala-Pro-ValCH2 Cl]
[8]
  concentration exhibiting inhibitory activity: 25 µM
[9]; administered more than fifteen minutes prior to intrapulmonary instillation of elastase
  effectiveness: ineffective
[9]; given orally
  treatment of emphysema: effective agent in the treatment of emphysema

## CC(C)(C)OC(=O)N[C@@H](Cc1ccccc1)C(=O)N1CCC[C@H]1C(=O)N[C@@H](Cc1ccccc1)B1OC(C)(C)C(C)(C)O1 [Boc--Phe--Pro--Borophe--pinacol, Boc-PhePro-Borophe-pinacol]
[10]; 0.5 min
  Activity % of Control: 69.1 % of Control
[10]; 4.0 min
  Activity % of Control: 21 % of Control
[11]
  Activity % of Control: 69 % of Control
[12]; 0.5 min
  % Activity: 42%
[12]; 2 min
  % Activity: 23%
[12]; 4 min
  % Activity: 17%

## N-succinyl-L-alanyl-L-alanyl-L-prolyl-L-valine chloromethyl ketone [Suc-Ala-Ala-Pro-ValCH2 Cl]
[13]
  effectiveness: effective
